Data from patent publication US20210000889A1, “METHODS FOR PROGNOSING AND TREATING METABOLIC DISEASES” (INSERM (INSTITUT NATIONAL DE LA SANTÉ ET DE LA RECHERCHE …, priority 2018, published 2021).

Columns and labels:
ob/ob mice = test: 1MT treatment of ob/ob mice (drinking water); type: in vivo
Excerpt: Male C57Bl/6 Ido-1−/− mice were bought from the Jackson Laboratory (Jax) and bred in our facility. At weaning, mice were separated according to the genotype. Male ob/ob mice were bought from Janvier Laboratory at 4 weeks of age. Mice were fed with either a normal chow diet (NCD) (A03, SAFE, France) or subjected to diet-induced obesity containing 60% FAT (E15742-347, SSNIFF, Germany). High fat diet (HFD) was started at 7 weeks of age and continued for 20 weeks or less with ad libitum access to water and food. For chimerism experiment, we subjected 10 weeks old C57BL/6 WT and C57BL/6 Ido-1−/− to medullar aplasia by 9.5 gray lethal total body irradiation. We repopulated the mice with an intravenous injection of bone marrow cells isolated from femurs and tibias of male C57BL/6 WT and C57BL/6 Ido-1−/−. After 4 weeks of recovery, mice were fed a HFD for 20 weeks. In some experiments, IDO inhibitor (L-1methyl tryptophan, 1MT) (Sigma) was used at 2 mg/mL diluted in drinking water. […]
For oral glucose tolerance test (OGTT), mice were fasted overnight prior to an oral administration of 1-5 g/kg glucose. […] At 0, 15, 30, 60 min tail vein blood was collected, plasma samples were stored at −20° C. until they were analyzed for insulin concentration (Crystal Chem Inc., Downers Grove, USA). […]
HPLC Quantifications Thawed stools from mice were extracted as previously described 12. L-tryptophan (Trp) and L-kynurenine (Kyn) were measured via HPLC using a coulometric electrode array (ESA Coultronics, ESA Laboratories, Chelsford, Mass., USA)13. Quantifications were performed by referencing calibration curves obtained with internal standards. Other compounds (IAA) were quantified via liquid chromatography coupled to mass spectrometry (LC-MS) by using a Waters ACQUITY ultraperformance liquid chromatography (UPLC) system equipped with a binary solvent delivery manager and sample manager (Waters Corporation, Milford, Mass., USA) and that was coupled to a tandem quadrupole-time-of-flight (Q-TOF) mass spectrometer equipped with an electrospray interface (Waters Corporation). […]

WT mice on HFD = test: IAA supplementation in drinking water of WT mice on HFD; type: in vivo; settings: IAA 2 mg/ml in drinking water, HFD 11 weeks, vs not supplemented, FIG. 3
Procedure: (a) feces IAA (indole acetic acid) (b) ITT, and quantification of M2-like macrophages (F4/80+CD11b+CD206+ in epiWAT) and CD45+ cells (n=5 per group) (c-d), in WT mice supplemented or not with IAA (diluted in drinking water, 2 mg/ml) and put on HFD during 11 weeks (n=9-10 per group Data are expressed as mean±sem. *P≤0.05, **p<0.001, ***p<0.0001.
For oral glucose tolerance test (OGTT), mice were fasted overnight prior to an oral administration of 1-5 g/kg glucose. Blood was sampled from the tail vein at 0, 5, 15, 30, 60, 90 and 120 min in order to assay glucose concentration (OneTouch Ultra glucometer, LifeScan Europe). At 0, 15, 30, 60 min tail vein blood was collected, plasma samples were stored at −20° C. until they were analyzed for insulin concentration (Crystal Chem Inc., Downers Grove, USA). Insulin tolerance test (ITT) was performed in mice food deprived for 5 h prior to an intraperitonial injection of 1 U/kg insulin. Blood was sampled from the tail vein at 0, 5, 15, 30, 60 and 90 min in order to assay glucose concentration. […]
The stromal vascular fraction (SVF) containing mononuclear cells and preadipocytes was extracted from adipose tissue. […] The SVF pellet was resuspended in 1 mL fluorescence-activated cell sorter (FACS) buffer. […] Samples were acquired using an Fortessa cytometer (Becton Dickinson) and analyzed with FlowJo (TreeStar) software programs.

[1] = 1MT 2 mg/mL in drinking water, vs untreated, data not shown

Row | Compound | body weight (ob/ob mice; [1]) | insulin sensitivity (ob/ob mice; [1]) | ratio of Kyn/Trp in the feces (ob/ob mice; 1MT-treated vs not treated, FIG. 1j) | adipose inflammation (M2-like macrophages and CD45+ cells in epiWAT) (WT mice on HFD) | insulin resistance (ITT) (WT mice on HFD)
1 | Cn1cc(C[C@H](N)C(=O)O)c2ccccc21 [1MT, L-1methyl tryptophan] | no difference in body weight | improved insulin sensitivity | significant decrease | – | –
2 | O=C(O)Cc1c[nH]c2ccccc12 [IAA, indole-3-acetic acid] | – | – | – | decreases | decreases insulin resistance
